Laboratory results reported in publication PMC10865806, “Structural insights into the molecular mechanism of high-level ceftazidime–avibactam resistance conferred by CMY-185” (mBio, 2024).
Converted amounts (≈) assume the structure as drawn.

How the values were obtained:
V211S (CMY-42) = target: T1, V211S (CMY-42) (Klebsiella pneumoniae, UniProt Q48434, V231S); assay: Steady-state hydrolysis kinetics; format: biochemical, Escherichia coli; details: PBS pH 7.2, 25°C
T1 construct: all CMY-2 variant genes encoding the mature enzyme without a signal peptide were cloned into the protein expression plasmid vector pET-30b; made in house; host or cells: E. coli BL21 (DE3), pET-30b
From the text: (§1) We tested the enzymes, CMY-2, two single mutants V211S (CMY-42) and N346Y, three double mutants A114E_N346Y, Q120K_N346Y, and V211S_N346Y, and the quadruplet mutant CMY-185 to elucidate the impact on the kinetic properties resulting from the four amino acid substitutions present in CMY-185 compared with CMY-2 ([8]). The steady-state kinetic parameters kcat and Km (or Ki app) for nitrocefin, cephalothin, ceftazidime, and cefiderocol and the inhibition parameters Ki app, k2/K, k−2, and koff for avibactam are summarized in Table 1. During the hydrolysis of nitrocefin, we observed the reduction of the initial velocity at concentrations above 50 µM particularly for the CMY-2 variants harboring the N346Y substitution. As this could have represented substrate inhibition, we then determined the kinetics parameters for nitrocefin using the Haldane equation ([16]). […] In addition, during the hydrolysis of cefiderocol by CMY-185, the initial velocities at a concentration range of 3.7–59.4 µM were similar.
(§2) The steady-state kinetics were carried out on a UV-Visible spectrometer (UV-1280, Shimadzu, Japan) in PBS pH 7.2 at 25°C with a constant amount of enzyme and varying concentrations of the substrates. We tested nitrocefin, cephalothin, ceftazidime, and cefiderocol as the substrates and avibactam as the inhibitor. The steady-state kinetics parameters Km and kcat were determined with the Michaelis-Menten equation. For poorly hydrolyzed substrates, the Km value was assumed to be the competitive inhibition constant (Ki app) value according to previous studies ([17], [19]). Inhibition parameter values of Ki app, k2/K, k−2, and koff for avibactam were determined using a method as described previously ([33]). Cephalothin was used as the reporter substrate for competitive inhibition experiments, and its concentration was fixed at 100 µM. The enzyme concentration was 1–10 nM. Inverse steady-state initial velocities were plotted against the concentration of the competitive inhibitor agents, such as ceftazidime, cefiderocol, and avibactam. The data were analyzed by linear regression analysis of the Dixon plot, and Ki app (observed) was determined by dividing the y-intercept value by the slope of the line. It was then corrected to account for the affinity of cephalothin for each enzyme using the Equation (1): […]

[1] = target: T2, CMY-2 variant Q120K_N346Y (Klebsiella pneumoniae, UniProt Q48434, N366Y/Q140K); assay: Steady-state hydrolysis kinetics; format: biochemical, Escherichia coli; details: substrate 100 µM, 100–200 nM enzyme
T2 construct: all CMY-2 variant genes encoding the mature enzyme without a signal peptide were cloned into the protein expression plasmid vector pET-30b; made in house; host or cells: E. coli BL21 (DE3), pET-30b
From the text: as §1, §2

CMY-185 = target: T3, CMY-185 (Klebsiella pneumoniae, UniProt Q48434, A134E/N366Y/Q140K/V231S); assay: Steady-state hydrolysis kinetics; format: biochemical, Escherichia coli
T3 construct: all CMY-2 variant genes encoding the mature enzyme without a signal peptide were cloned into the protein expression plasmid vector pET-30b; made in house; host or cells: E. coli BL21 (DE3), pET-30b
From the text: as §1, §2

[2] = target: T4, CMY-2 variant V211S_N346Y (Klebsiella pneumoniae, UniProt Q48434, N366Y/V231S); assay: Steady-state hydrolysis kinetics; format: biochemical, Escherichia coli
T4 construct: all CMY-2 variant genes encoding the mature enzyme without a signal peptide were cloned into the protein expression plasmid vector pET-30b; made in house; host or cells: E. coli BL21 (DE3), pET-30b
From the text: as §1, §2

[3] = target: T5, CMY-2 variant A114E_N346Y (Klebsiella pneumoniae, UniProt Q48434, A134E/N366Y); assay: Steady-state hydrolysis kinetics; format: biochemical, Escherichia coli; details: substrate 100 µM, 100–200 nM enzyme
T5 construct: all CMY-2 variant genes encoding the mature enzyme without a signal peptide were cloned into the protein expression plasmid vector pET-30b; made in house; host or cells: E. coli BL21 (DE3), pET-30b
From the text: as §1
as §2, with “The enzyme concentration was 1–10 nM.” left out

CMY-2 = target: T6, CMY-2 (Klebsiella pneumoniae, UniProt Q48434); assay: Steady-state hydrolysis kinetics; format: biochemical, Escherichia coli; details: substrate 100 µM, 100–200 nM enzyme
T6 construct: all CMY-2 variant genes encoding the mature enzyme without a signal peptide were cloned into the protein expression plasmid vector pET-30b; made in house; host or cells: E. coli BL21 (DE3), pET-30b
From the text: as §1
as §2, with “The enzyme concentration was 1–10 nM.” left out

CMY-2 variant N346Y = target: T7, CMY-2 variant N346Y (Klebsiella pneumoniae, UniProt Q48434, N366Y); assay: Steady-state hydrolysis kinetics; format: biochemical, Escherichia coli; details: substrate 100 µM, 100–200 nM enzyme
T7 construct: all CMY-2 variant genes encoding the mature enzyme without a signal peptide were cloned into the protein expression plasmid vector pET-30b; made in house; host or cells: E. coli BL21 (DE3), pET-30b
From the text: as §1
as §2, with “The enzyme concentration was 1–10 nM.” left out

CMY-178 = details: cited from earlier work
CMY-172 = details: cited from earlier work

CC(C)(O/N=C(\C(=O)N[C@@H]1C(=O)N2C(C(=O)[O-])=C(C[N+]3(CCNC(=O)c4ccc(O)c(O)c4Cl)CCCC3)CS[C@H]12)c1csc(N)n1)C(=O)O [Cefiderocol, cefiderocol]
Km (V211S (CMY-42)): 68 ± 11 µM | kcat (V211S (CMY-42)): 0.034 ± 0.002 s⁻¹ | kcat (V211S (CMY-42); listed as cefiderocol): (3.4 ± 0.2) × 10^−2 s^−1 | hydrolysis [1]: no apparent hydrolysis | kcat (CMY-185; determined with steady-state velocities (cefiderocol 3.7–59.4 µM) and Ki app assumed to Km): 6.9 × 10^−3 ± 0.4 ×10^−3 a s^−1 | kcat/Ki app (CMY-185; kcat/Ki app shown in the kcat/Km line): 3.0 × 10^−2 ± 0.2 × 10^−2 b µM^−1 s^−1 | fold lower Km ([2]; V211S_N346Y compared to V211S): 10 fold | Km ([2]; V211S_N346Y, PBS pH 7.2, 25°C): 6.9 ± 1.5 µM | kcat ([2]; V211S_N346Y, PBS pH 7.2, 25°C): 0.049 ± 0.003 s⁻¹ | hydrolysis [3]: no apparent hydrolysis | hydrolysis (CMY-2): no apparent hydrolysis | hydrolysis (CMY-2 variant N346Y): no apparent hydrolysis | MIC (CMY-178): 1 µg/mL (≈ 1.33 µM) | MIC (CMY-172): 1 µg/mL (≈ 1.33 µM)
